Values of other authors, collected in patent publication US20030077758A1, “Myc repressor modulation to treat aging-related disorders” (priority 2000, published 2003).

Target: AP-2 (Homo sapiens, UniProt P05549)
Settings: in vitro; apparently by oxidizing cysteine residues in the AP-2 DNA binding domain

AP-2, sequence (P05549 whole entry, species assumed, the tested form may be a part): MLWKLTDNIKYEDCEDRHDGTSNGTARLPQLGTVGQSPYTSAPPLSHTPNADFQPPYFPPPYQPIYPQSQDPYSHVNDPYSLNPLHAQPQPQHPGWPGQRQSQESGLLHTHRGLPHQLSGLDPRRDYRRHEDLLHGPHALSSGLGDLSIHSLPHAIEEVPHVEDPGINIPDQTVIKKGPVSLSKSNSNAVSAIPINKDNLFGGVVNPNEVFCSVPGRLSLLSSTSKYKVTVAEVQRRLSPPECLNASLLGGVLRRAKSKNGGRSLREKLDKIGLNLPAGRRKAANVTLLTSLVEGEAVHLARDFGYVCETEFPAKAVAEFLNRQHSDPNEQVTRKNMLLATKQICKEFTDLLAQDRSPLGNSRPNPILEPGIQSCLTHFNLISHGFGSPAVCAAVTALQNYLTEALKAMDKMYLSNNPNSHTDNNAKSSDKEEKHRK

SMILES	AP-2 DNA binding activity
CN(C)C(=O)/N=N/C(=O)N(C)C [diamide]	inhibited
OO [hydrogen peroxide]	inhibited
